Data from ChEMBL document CHEMBL6096725, “Repurposing Linezolid in Conjunction with Histone Deacetylase Inhibitor Access in the Realm of Glioblastoma Therapies” (J Med Chem, 2025).
Active and inactive are the calls of the source. The calls are words filed in the database; no cut-off is given here.

What was measured:
TZM-resistant GBM cell [1] = experiment: Disruption of DNA repair in patient-derived human TMZ-resistant GBM cells assessed as decrease in CtIP level at 20 uM upto 80 hrs by Western blot analysis; type: functional, cell-based
TZM-resistant GBM cell [2] = experiment: Disruption of DNA repair in patient-derived human TMZ-resistant GBM cells assessed as decrease in RAD51 level at 20 uM upto 80 hrs by Western blot analysis; type: functional, cell-based
U-87 MG [3] = experiment: Disruption of DNA homologous recombination repair in human U-87 MG cells assessed as HR repaired cells at 5 uM incubated for 48 hrs by flow cytometry relative to control; type: functional, U-87MG ATCC
[4] = target: T1, Histone deacetylase (Homo sapiens) (UniProt Q13547+O15379+Q9UBN7+Q92769+Q9UQL6+Q8WUI4+Q9BY41+Q96DB2+P56524+Q9UKV0+Q969S8); experiment: Inhibition of HDAC in human U-87 MG cells assessed as increase in acetyl histone H3 at K4 sites at 10 uM incubated for 1 hr by Western blot analysis; type: cell-based
TZM-resistant GBM cell [5] = experiment: Disruption of DNA repair in patient-derived human TMZ-resistant GBM cells assessed as decrease in RAD51 level upto 80 uM incubated for 72 hrs by Western blot analysis; type: functional, cell-based
[6] = target: T1, Histone deacetylase (Homo sapiens); experiment: Inhibition of HDAC in human U-87 MG cells assessed as increase in acetyl histone H3 at K8 sites at 10 uM incubated for 1 hr by Western blot analysis; type: cell-based
U-87 MG [7] = experiment: Disruption of DNA homologous recombination repair in human U-87 MG cells assessed as HR repaired cells at 2.5 uM incubated for 48 hrs by flow cytometry relative to control; type: functional, U-87MG ATCC
TZM-resistant GBM cell [8] = experiment: Induction of RAD51 degradation in human TMZ-resistant GBM cells assessed increase in RAD51 ubiquitination upto 20 uM incubated for 24 hrs by Western blot analysis; type: cell-based
[9] = Drug uptake in C57BL/6 mouse plasma at 360 mg/kg, ip measured after 30 mins by UPLC analysis; type: ADME, organism-based; conditions: in vivo, 0.5 h
TZM-resistant GBM cell [10] = experiment: Effect on cellular proliferation dynamics in patient-derived human TMZ-resistant GBM cells at 10 uM incubated for 72 hrs by RNA-seq analysis; type: functional, cell-based
TZM-resistant GBM cell [11] = experiment: Antitumor activity against patient-derived human TMZ-resistant GBM cells implanted in C57BL/6 mouse assessed as inhibition of tumor cell growth in brain at 10 to 20 mg/kg administered on every 3 days measured for 60 days in presence of TMZ; type: functional, organism-based; conditions: dose 10-20 mg/kg, time 60.0 day
TZM-resistant GBM cell [12] = experiment: Induction of cell cycle arrest in patient-derived human TMZ-resistant GBM cells assessed as decrease in accumulation of cells at G0/G1 phase at 1 to 20 uM; type: functional, cell-based; conditions: dose 1-20 µM
TZM-resistant GBM cell [13] = experiment: Disruption of DNA repair in patient-derived human TMZ-resistant GBM cells assessed as decrease in RAD51 level at 40 uM upto 80 hrs by Western blot analysis; type: functional, cell-based
TZM-resistant GBM cell [14] = experiment: Disruption of DNA repair in patient-derived human TMZ-resistant GBM cells assessed as decrease in CtIP level at 40 uM upto 80 hrs by Western blot analysis; type: functional, cell-based
TMZ-resistant CT-2A cell [15] = experiment: Antitumor activity against mouse TMZ-resistant CT-2A cells implanted in C57BL/6 mouse assessed as tumor growth inhibition at 50 mg/kg, po measured for 17 to 25 days by IVIS analysis; type: functional, organism-based; conditions: time 17-25 day
[16] = target: T1, Histone deacetylase (Homo sapiens); experiment: Inhibition of HDAC in human U-87 MG cells assessed as increase in acetyl histone H3 at K5 sites at 10 uM incubated for 1 hr by Western blot analysis; type: cell-based
TZM-resistant GBM cell [17] = experiment: Disruption of DNA repair in patient-derived human TMZ-resistant GBM cells assessed as decrease in CtIP level upto 80 uM incubated for 72 hrs by Western blot analysis; type: functional, cell-based
[18] = target: T1, Histone deacetylase (Homo sapiens); experiment: Inhibition of HDAC in human U-87 MG cells assessed as increase in acetyl histone H3 at K14 sites at 10 uM incubated for 1 hr by Western blot analysis; type: cell-based
TZM-resistant GBM cell [19] = experiment: Disruption of DNA repair in patient-derived human TMZ-resistant GBM cells assessed as increase in ATM phosphorylation upto 80 uM incubated for 72 hrs by Western blot analysis; type: functional, cell-based
[20] = Drug uptake in C57BL/6 mouse brain at 360 mg/kg, ip measured after 30 mins by UPLC analysis; type: ADME, organism-based; conditions: in vivo, 0.5 h
[21] = target: T1, Histone deacetylase (Homo sapiens); experiment: Inhibition of HDAC in human U-87 MG cells assessed as increase in acetyl histone H3 at K56 sites at 10 uM incubated for 1 hr by Western blot analysis; type: cell-based
TZM-resistant GBM cell [22] = experiment: Suppression of DNA replication in patient-derived human TMZ-resistant GBM cells by GSEA analysis; type: functional, cell-based
TZM-resistant GBM cell [23] = experiment: Induction of cell cycle arrest in patient-derived human TMZ-resistant GBM cells assessed as accumulation of cells at G2/M phase at 1 to 20 uM; type: functional, cell-based; conditions: dose 1-20 µM
Mus musculus = experiment: In vivo antitumor activity against patient-derived human TMZ-resistant GBM cells implanted in C57BL/6 mouse assessed as increase in animal survival at 10 to 20 mg/kg administered on every 3 days measured for 60 days in presence of TMZ; type: functional, organism-based; conditions: dose 10-20 mg/kg, time 60.0 day
TZM-resistant GBM cell [24] = experiment: Disruption of DNA repair in patient-derived human TMZ-resistant GBM cells assessed as decrease in RPA32 level upto 80 uM incubated for 72 hrs by Western blot analysis; type: functional, cell-based
TZM-resistant GBM cell [25] = experiment: Suppression of mitotic nuclear division in patient-derived human TMZ-resistant GBM cells by GSEA analysis; type: functional, cell-based
TMZ-resistant CT-2A cell [26] = experiment: Antitumor activity against mouse CT-2A cells implanted in C57BL/6 mouse assessed as tumor growth inhibition at 10 mg/kg, ip measured for 10 to 17 days by IVIS analysis; type: functional, organism-based; conditions: time 10-17 day
[27] = target: T1, Histone deacetylase (Homo sapiens); experiment: Inhibition of HDAC in human U-87 MG cells assessed as increase in acetyl histone H3 at K16 sites at 10 uM incubated for 1 hr by Western blot analysis; type: cell-based
[28] = target: T1, Histone deacetylase (Homo sapiens); experiment: Inhibition of HDAC in human U-87 MG cells assessed as increase in acetyl histone H3 at K27 sites at 10 uM incubated for 1 hr by Western blot analysis; type: cell-based
[29] = target: T1, Histone deacetylase (Homo sapiens); experiment: Inhibition of HDAC in human U-87 MG cells assessed as increase in acetyl histone H3 at K9 sites at 10 uM incubated for 1 hr by Western blot analysis; type: cell-based
[30] = target: T1, Histone deacetylase (Homo sapiens); experiment: Inhibition of HDAC in human U-87 MG cells assessed as increase in acetyl histone H3 at K18 sites at 10 uM incubated for 1 hr by Western blot analysis; type: cell-based

Q: For `C[C@@H]1C[C@@H]([C@H](O)CC2CC(=O)NC(=O)C2)C(=O)[C@@H](C)C1`, which Activity (TZM-resistant GBM cell [1]) is on record?
A: The Activity was “Active; Less Pronounced Effect Observed”.

Q: What about the Activity (TZM-resistant GBM cell [2]) of the same compound?
A: The Activity was “Active; Less Pronounced Effect Observed”.

Q: For `O=C(/C=C/c1ccc(CNC[C@H]2CN(c3ccc(N4CCOCC4)c(F)c3)C(=O)O2)cc1)NO`, which Activity (U-87 MG [3]) is on record?
A: Its Activity is 5.06%.

Q: And the inhibition [4]?
A: The inhibition was “Active”.

Q: What about the Activity (TZM-resistant GBM cell [5]) of the same compound?
A: The Activity was “Active”.

Q: What about the inhibition [6] of the same compound?
A: The inhibition was “Active”.

Q: What about the Activity (U-87 MG [7]) of the same compound?
A: The Activity was 11.4%.

Q: What about the Activity (TZM-resistant GBM cell [8]) of the same compound?
A: The Activity was “Active”.

Q: And the Drug uptake [9]?
A: The Drug uptake was “Active”.

Q: What about the Activity (TZM-resistant GBM cell [10]) of the same compound?
A: The Activity was “Active”.

Q: And the inhibition (TZM-resistant GBM cell [11])?
A: The inhibition was “Active”.

Q: And the Activity (TZM-resistant GBM cell [12])?
A: Its Activity is “Active”.

Q: What about the Activity (TZM-resistant GBM cell [13]) of the same compound?
A: Its Activity is “Active; Rapid And Significant Decrease In Expression Observed Over Time”.

Q: What about the Activity (TZM-resistant GBM cell [14]) of the same compound?
A: Its Activity is “Active; Rapid And Significant Decrease In Expression Observed Over Time”.

Q: And the inhibition (TMZ-resistant CT-2A cell [15])?
A: Its inhibition is “Active”.

Q: And the inhibition [16]?
A: The inhibition was “Active”.

Q: What about the Activity (TZM-resistant GBM cell [17]) of the same compound?
A: Its Activity is “Active”.

Q: And the inhibition [18]?
A: Its inhibition is “Active”.

Q: What about the Activity (TZM-resistant GBM cell [19]) of the same compound?
A: The Activity was “Active; Result Suggests Activation Of Physiological Response To Dsbs Induced By Compound”.

Q: What about the Drug uptake [20] of the same compound?
A: Its Drug uptake is “Active”.

Q: And the inhibition [21]?
A: Its inhibition is “Active”.

Q: And the Activity (TZM-resistant GBM cell [22])?
A: Its Activity is “Active”.

Q: And the Activity (TZM-resistant GBM cell [23])?
A: The Activity was “Active”.

Q: And the Activity (Mus musculus)?
A: Its Activity is “Active”.

Q: What about the Activity (TZM-resistant GBM cell [24]) of the same compound?
A: Its Activity is “Active”.

Q: What about the Activity (TZM-resistant GBM cell [25]) of the same compound?
A: The Activity was “Active”.

Q: And the inhibition (TMZ-resistant CT-2A cell [26])?
A: The inhibition was “Active”.

Q: What about the inhibition [27] of the same compound?
A: Its inhibition is “Active”.

Q: And the inhibition [28]?
A: The inhibition was “Active”.

Q: What about the inhibition [29] of the same compound?
A: The inhibition was “Active”.

Q: And the inhibition [30]?
A: Its inhibition is “Active”.
